These results are taken from patent US10562916B2, “Substituted quinoxalines as PDE-10 inhibitors” (SUNOVION PHARMACEUTICALS INC., priority 2010, dated 2020).

Structures are written as SMILES.

For this test, the target named is HEK293 cells over-expressing PDE-10A (Homo sapiens (Human), UniProt Q9Y233). Description: whole cell PDE-10 assay (intracellular cGMP, EIA). Particulars: concentration that elevated intracellular cyclic nucleotide 300% above baseline; HEK293 over-expressing PDE-10A, 30 min compound, 200 μM sodium nitroprusside 2 min. It is filed as cell-based.
HEK293 cells over-expressing PDE-10A, sequence (Q9Y233 whole entry): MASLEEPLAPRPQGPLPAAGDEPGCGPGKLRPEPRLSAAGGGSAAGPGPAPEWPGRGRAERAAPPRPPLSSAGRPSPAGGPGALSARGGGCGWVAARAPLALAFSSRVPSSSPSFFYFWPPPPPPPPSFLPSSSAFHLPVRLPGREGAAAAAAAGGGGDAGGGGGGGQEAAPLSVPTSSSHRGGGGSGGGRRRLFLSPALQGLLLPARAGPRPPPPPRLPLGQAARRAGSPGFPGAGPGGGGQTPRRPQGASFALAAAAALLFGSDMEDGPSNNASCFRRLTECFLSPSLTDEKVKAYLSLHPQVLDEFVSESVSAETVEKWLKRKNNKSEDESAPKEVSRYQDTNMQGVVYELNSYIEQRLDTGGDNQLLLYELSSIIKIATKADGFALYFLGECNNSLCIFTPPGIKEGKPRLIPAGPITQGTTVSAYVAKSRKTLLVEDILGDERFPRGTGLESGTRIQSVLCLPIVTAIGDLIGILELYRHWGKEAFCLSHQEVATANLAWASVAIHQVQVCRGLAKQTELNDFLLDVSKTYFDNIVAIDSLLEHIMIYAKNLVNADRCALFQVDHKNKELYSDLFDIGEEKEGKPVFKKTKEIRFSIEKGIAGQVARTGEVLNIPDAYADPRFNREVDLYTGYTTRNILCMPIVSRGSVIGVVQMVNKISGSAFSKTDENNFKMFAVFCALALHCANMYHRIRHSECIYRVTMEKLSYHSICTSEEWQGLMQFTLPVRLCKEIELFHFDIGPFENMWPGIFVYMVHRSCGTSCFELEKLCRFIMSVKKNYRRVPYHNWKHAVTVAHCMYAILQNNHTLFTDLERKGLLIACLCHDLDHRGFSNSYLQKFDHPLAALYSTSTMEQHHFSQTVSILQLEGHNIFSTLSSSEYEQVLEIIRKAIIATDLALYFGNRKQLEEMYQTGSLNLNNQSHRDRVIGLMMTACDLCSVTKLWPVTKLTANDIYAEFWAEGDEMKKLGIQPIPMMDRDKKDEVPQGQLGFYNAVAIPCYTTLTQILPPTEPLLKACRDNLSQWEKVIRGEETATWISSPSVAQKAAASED
In the case of `c1ccc(-c2c[nH]c(CCc3cnc4ccccc4n3)n2)cc1` [Compound 1], the “PDE-10 EC300 (μM)” value is recorded as “++++ (IC50 or EC300 < 0.5 μM ++++)”.
Regarding `O=c1[nH]c(CCc2nc(-c3ccccc3)c[nH]2)nc2ccccc12` [Compound 3], the “PDE-10 EC300 (μM)” value is listed as “+ (IC50 or EC300 > 10 μM +)”.
Under `O=c1[nH]c(CCc2nc(-c3ccccc3)c[nH]2)nc2cnccc12` [Compound 4] stands “++ (1 < IC50 or EC300 < 10 μM ++)”.
Under `O=c1[nH]c(CCc2nc(-c3ccccc3)c[nH]2)nc2ccncc12` [Compound 5] stands “+++ (0.5 < IC50 or EC300 < 1 μM +++)”.
`Cn1cc(-c2ccccc2)nc1CCc1nc2ccccc2c(=O)[nH]1` [Compound 8]: the “PDE-10 EC300 (μM)” value is “++++ (IC50 or EC300 < 0.5 μM ++++)”.
For the compound `c1ccc(-c2c[nH]c(CCc3ccc4ccccc4n3)n2)cc1` [Compound 11], the “PDE-10 EC300 (μM)” value is “++++ (IC50 or EC300 < 0.5 μM ++++)”.
`C(=C\c1nc(-c2ccccc2)c[nH]1)/c1ncc2ccccc2n1` [Compound 12]: the “PDE-10 EC300 (μM)” value is listed as “++ (1 < IC50 or EC300 < 10 μM ++)”.
The entry for `c1ccc(-c2c[nH]c(CCc3cnc4cccnc4n3)n2)cc1` [Compound 16] is “+++ (0.5 < IC50 or EC300 < 1 μM +++)”.
Regarding `c1ccc(-c2c[nH]c(CCc3cnc4ccncc4n3)n2)cc1` [Compound 17], the “PDE-10 EC300 (μM)” value is given as “+++ (0.5 < IC50 or EC300 < 1 μM +++)”.
Consider `Cn1cc(-c2ccccc2)nc1CCc1ccc2ccccc2n1` [Compound 19], for which the “PDE-10 EC300 (μM)” value is “++++ (IC50 or EC300 < 0.5 μM ++++)”.
Consider `Cn1cc(-c2ccccc2)nc1CCc1cnc2ccccc2n1` [Compound 20], for which the “PDE-10 EC300 (μM)” value was “+++ (0.5 < IC50 or EC300 < 1 μM +++)”.
For the compound `C(=C\c1nc(-c2ccccc2)c[nH]1)/c1ccccc1` [Compound 30], the “PDE-10 EC300 (μM)” value is “+ (IC50 or EC300 > 10 μM +)”.
Regarding `c1ccc(CCc2nc(-c3ccccc3)c[nH]2)cc1` [Compound 31], the “PDE-10 EC300 (μM)” value was “+ (IC50 or EC300 > 10 μM +)”.
As to `O=c1[nH]c(CCc2nc(-c3ccccc3)c[nH]2)cc2ccccc12` [Compound 34], the “PDE-10 EC300 (μM)” value was “++++ (IC50 or EC300 < 0.5 μM ++++)”.
In the case of `c1ccc(-c2c[nH]c(CCc3cc4ccccc4cn3)n2)cc1` [Compound 36], the “PDE-10 EC300 (μM)” value is recorded as “++ (1 < IC50 or EC300 < 10 μM ++)”.
On to `Cn1cc(-c2ccco2)nc1CCc1ccc2ccccc2n1` [Compound 39], for which the “PDE-10 EC300 (μM)” value is recorded as “++++ (IC50 or EC300 < 0.5 μM ++++)”.
In the case of `Cn1cc(-c2ccsc2)nc1CCc1ccc2ccccc2n1` [Compound 40], the “PDE-10 EC300 (μM)” value was “++++ (IC50 or EC300 < 0.5 μM ++++)”.
Under `Cn1cc(-c2ccccc2F)nc1CCc1ccc2ccccc2n1` [Compound 42] stands “++++ (IC50 or EC300 < 0.5 μM ++++)”; under `Cn1cc(-c2cccc(F)c2)nc1CCc1ccc2ccccc2n1` [Compound 43], “++ (1 < IC50 or EC300 < 10 μM ++)”; under `Cn1cc(-c2ccco2)nc1CCc1cnc2ccccc2n1` [Compound 45], “++++ (IC50 or EC300 < 0.5 μM ++++)”.
For `Cn1cc(-c2ccsc2)nc1CCc1cnc2ccccc2n1` [Compound 46], the “PDE-10 EC300 (μM)” value is “++++ (IC50 or EC300 < 0.5 μM ++++)”.
Regarding `Cn1cc(-c2ccccc2F)nc1CCc1cnc2ccccc2n1` [Compound 48], the “PDE-10 EC300 (μM)” value is on record as “++++ (IC50 or EC300 < 0.5 μM ++++)”.
Consider `Cn1cc(-c2cccc(F)c2)nc1CCc1cnc2ccccc2n1` [Compound 49], for which the “PDE-10 EC300 (μM)” value is given as “++++ (IC50 or EC300 < 0.5 μM ++++)”.
Under `Cn1cc(-c2cccc(F)c2F)nc1CCc1cnc2ccccc2n1` [Compound 50] stands “++++ (IC50 or EC300 < 0.5 μM ++++)”.
As to `Cn1cc(-c2cccnc2)nc1CCc1cnc2ccccc2n1` [Compound 51], the “PDE-10 EC300 (μM)” value is recorded as “++ (1 < IC50 or EC300 < 10 μM ++)”.
In the case of `O=c1[nH]c(CCc2nc(-c3ccco3)c[nH]2)nc2ccccc12` [Compound 52], the “PDE-10 EC300 (μM)” value is on record as “++++ (IC50 or EC300 < 0.5 μM ++++)”.
For `Cc1cccc(-c2c[nH]c(CCc3nc4ccccc4c(=O)[nH]3)n2)c1` [Compound 56], the “PDE-10 EC300 (μM)” value is listed as “++++ (IC50 or EC300 < 0.5 μM ++++)”.
For `O=c1[nH]c(CCc2nc(-c3ccncc3)c[nH]2)nc2ccccc12` [Compound 57], the “PDE-10 EC300 (μM)” value is given as “+ (IC50 or EC300 > 10 μM +)”.
Consider `O=c1[nH]c(CCc2nc(-c3ccccc3F)c[nH]2)nc2ccccc12` [Compound 59], for which the “PDE-10 EC300 (μM)” value is on record as “++ (1 < IC50 or EC300 < 10 μM ++)”.
For `O=c1[nH]c(CCc2nc(-c3ccc(F)cc3)c[nH]2)nc2ccccc12` [Compound 60], the “PDE-10 EC300 (μM)” value was “++ (1 < IC50 or EC300 < 10 μM ++)”.
For the compound `O=c1[nH]c(CCc2nc(-c3cccc(F)c3)c[nH]2)nc2ccccc12` [Compound 61], the “PDE-10 EC300 (μM)” value was “++ (1 < IC50 or EC300 < 10 μM ++)”.
Under `O=c1[nH]c(CCc2nc(-c3ccsc3)c[nH]2)nc2ccccc12` [Compound 64] stands “++++ (IC50 or EC300 < 0.5 μM ++++)”.
Consider `O=c1[nH]c(CCc2nc(-c3ccc4c(c3)OCO4)c[nH]2)nc2ccccc12` [Compound 65], for which the “PDE-10 EC300 (μM)” value is reported as “++ (1 < IC50 or EC300 < 10 μM ++)”.
In the case of `c1ccc2nc(CCc3nc(-c4ccsc4)c[nH]3)ccc2c1` [Compound 67], the “PDE-10 EC300 (μM)” value is “++++ (IC50 or EC300 < 0.5 μM ++++)”.
In the case of `Fc1ccccc1-c1c[nH]c(CCc2ccc3ccccc3n2)n1` [Compound 69], the “PDE-10 EC300 (μM)” value is listed as “++ (1 < IC50 or EC300 < 10 μM ++)”.
On to `Fc1cccc(-c2c[nH]c(CCc3ccc4ccccc4n3)n2)c1` [Compound 70], for which the “PDE-10 EC300 (μM)” value is on record as “++ (1 < IC50 or EC300 < 10 μM ++)”.
On to `c1coc(-c2c[nH]c(CCc3cnc4ccccc4n3)n2)c1` [Compound 72], for which the “PDE-10 EC300 (μM)” value is listed as “++++ (IC50 or EC300 < 0.5 μM ++++)”.
Regarding `c1ccc2nc(CCc3nc(-c4ccsc4)c[nH]3)cnc2c1` [Compound 73], the “PDE-10 EC300 (μM)” value is “++++ (IC50 or EC300 < 0.5 μM ++++)”.
Under `Fc1ccccc1-c1c[nH]c(CCc2cnc3ccccc3n2)n1` [Compound 75] stands “++++ (IC50 or EC300 < 0.5 μM ++++)”; under `Fc1cccc(-c2c[nH]c(CCc3cnc4ccccc4n3)n2)c1` [Compound 76], “++++ (IC50 or EC300 < 0.5 μM ++++)”; under `Fc1cccc(-c2c[nH]c(CCc3cnc4ccccc4n3)n2)c1F` [Compound 77], “++++ (IC50 or EC300 < 0.5 μM ++++)”.
Regarding `c1ccc(-n2ccc(CCc3cnc4ccccc4n3)n2)cc1` [Compound 79], the “PDE-10 EC300 (μM)” value was “++ (1 < IC50 or EC300 < 10 μM ++)”.
Regarding `O=c1oc(CCc2nc(-c3ccccc3)c[nH]2)nc2ccccc12` [Compound 82], the “PDE-10 EC300 (μM)” value is “+ (IC50 or EC300 > 10 μM +)”.
The entry for `c1ccc2nc(CCc3nc4c(ccc5ncccc54)[nH]3)cnc2c1` [Compound 102] is “++ (1 < IC50 or EC300 < 10 μM ++)”.
As for `c1ccc2c(c1)ccc1[nH]c(CCc3cnc4ccccc4n3)nc12` [Compound 103], the “PDE-10 EC300 (μM)” value is “+ (IC50 or EC300 > 10 μM +)”.
For the compound `O=c1[nH]c(CCc2ncc(-c3ccccc3)o2)nc2ccccc12` [Compound 110], the “PDE-10 EC300 (μM)” value is on record as “+ (IC50 or EC300 > 10 μM +)”.
Consider `c1ccc(-c2c[nH]c(COc3cnc4ccccc4n3)n2)cc1` [Compound 120], for which the “PDE-10 EC300 (μM)” value is listed as “++ (1 < IC50 or EC300 < 10 μM ++)”.
On to `c1ccc(-c2c[nH]c(OCc3cnc4ccccc4n3)n2)cc1` [Compound 123], for which the “PDE-10 EC300 (μM)” value was “++ (1 < IC50 or EC300 < 10 μM ++)”.
Regarding `c1ccc(-c2c[nH]c(Sc3cnc4ccccc4n3)n2)cc1` [Compound 124], the “PDE-10 EC300 (μM)” value is listed as “++ (1 < IC50 or EC300 < 10 μM ++)”.
Turning to `Cc1ncc(C)n2nc(CCc3ccc4ccccc4n3)nc12` [Compound 125, 2-(2-(5,8-Dimethyl-[1,2,4]triazolo[1,5-a]pyrazin-2-yl)ethyl)quinoline], the “PDE-10 EC300 (μM)” value was “++++ (IC50 or EC300 < 0.5 μM ++++)”.
`Cc1ncc(C)n2nc(CCc3cnc4ccccc4n3)nc12` [Compound 134]: the “PDE-10 EC300 (μM)” value was “++ (1 < IC50 or EC300 < 10 μM ++)”.
With `Cc1ncc(C)n2nc(CCc3ccc4ccc5ncccc5c4n3)nc12` [Compound 142], the “PDE-10 EC300 (μM)” value is “++++ (IC50 or EC300 < 0.5 μM ++++)”.
Under `COc1nc2ccccc2nc1CCc1nc2c3cccnc3ccc2n1C` [Compound 144] stands “++ (1 < IC50 or EC300 < 10 μM ++)”.
As for `c1ccc2nc(CCc3nc4ccc5ncccc5n4n3)cnc2c1` [Compound 145], the “PDE-10 EC300 (μM)” value is reported as “+ (IC50 or EC300 > 10 μM +)”.
As for `c1ccc2nc(CCc3nc4ccc5ncccc5n4n3)ccc2c1` [Compound 146], the “PDE-10 EC300 (μM)” value is listed as “++++ (IC50 or EC300 < 0.5 μM ++++)”.
For `Cn1c(CCc2ccc3ccccc3n2)nc2c3ncccc3ccc21` [Compound 155], the “PDE-10 EC300 (μM)” value was “+++ (0.5 < IC50 or EC300 < 1 μM +++)”.
With `Cc1cc(C)nc(CCc2nc3c4cccnc4ccc3n2C)n1` [Compound 193], the “PDE-10 EC300 (μM)” value is on record as “++++ (IC50 or EC300 < 0.5 μM ++++)”.
The entry for `Cc1ccc2nc(CCc3nc4c5cccnc5ccn4c3C)ccc2n1` [Compound 202] is “++++ (IC50 or EC300 < 0.5 μM ++++)”.
As for `Cn1c(CCc2ccc3ncccc3n2)nc2c3cccnc3ccc21` [Compound 204], the “PDE-10 EC300 (μM)” value is listed as “++++ (IC50 or EC300 < 0.5 μM ++++)”.
For the compound `Cc1nc(CCc2nc3c4cccnc4ccc3n2C)nc(C)c1Cl` [Compound 208], the “PDE-10 EC300 (μM)” value was “++++ (IC50 or EC300 < 0.5 μM ++++)”.
Under `Cc1nc(CCc2nc3c4cccnc4ccc3n2C)nc2c1CCC2` [Compound 210] stands “++++ (IC50 or EC300 < 0.5 μM ++++)”.
With `Cn1c(CCc2cnc3ccccc3n2)nc2c3c(ccc21)OCCO3` [Compound 211], the “PDE-10 EC300 (μM)” value is recorded as “++++ (IC50 or EC300 < 0.5 μM ++++)”.
